# Reference: US4539202A, “Derivatives of clavulanic acid, a process for their preparation and their use” (Beecham Group p.l.c., priority 1983, dated 1985)
# Like-named read-outs stand apart in the source and are kept apart here.
# How the values were obtained:
# K aerogenes E70 [1] = assay: Antibacterial activity, standard MIC test; assay type: cell-based; conditions: Klebsiella aerogenes, compound alone
# From the text: (§1) Using conventional methods the following results were obtained in a standard MIC test: […]
# St aureus Russell [2] = assay: Antibacterial activity, standard MIC test; assay type: cell-based; conditions: Staphylococcus aureus, compound alone
# From the text: as §1
# E coli JT39 [3] = assay: Antibacterial activity, standard MIC test; assay type: cell-based, Escherichia coli; conditions: compound alone
# From the text: as §1
# St aureus Russell [4] = assay: Synergistic activity with amoxycillin, standard MIC test; assay type: cell-based, Staphylococcus aureus; conditions: amoxycillin alone
# From the text: (§2) Synergistic Activity with Amoxycillin
# as §1
# K aerogenes E70 [5] = assay: as above; assay type: cell-based, Klebsiella aerogenes; conditions: amoxycillin alone
# From the text: as §2, §1
# E coli JT39 [6] = assay: as above; assay type: cell-based, Escherichia coli; conditions: amoxycillin alone
# From the text: as §2, §1
# [7] = Escherichia coli, read-out: MIC
MIC (K aerogenes E70 [1]),MIC (St aureus Russell [2]),MIC (E coli JT39 [3]; [7]),MIC amoxycillin (St aureus Russell [4]),MIC amoxycillin (K aerogenes E70 [5]),MIC amoxycillin (E coli JT39 [6]),Compound,MIC (E coli JT39 [3])
> 500 µg/mL,31 µg/mL,15 µg/mL,,,,"O=C(O)CCNC/C=C1\O[C@@H]2CC(=O)N2[C@H]1C(=O)O [1(b), 9-N-(2'-Carboxyethyl)aminodeoxyclavulanic acid]",
250 µg/mL,31 µg/mL,62.5 µg/mL,,,,"O=C(O)CCCCNC/C=C1\O[C@@H]2CC(=O)N2[C@H]1C(=O)O [3(c), 9-N-(4'-Carboxybutyl)aminodeoxyclavulanic acid]",
250 µg/mL,4 µg/mL,31 µg/mL,,,,"O=C(O)c1ccc(CNC/C=C2\O[C@@H]3CC(=O)N3[C@H]2C(=O)O)cc1 [4(c), 9-N-(4'-Carboxybenzyl)aminodeoxyclavulanic acid]",
250 µg/mL,8 µg/mL,31 µg/mL,,,,"COC(=O)CCNC/C=C1\O[C@@H]2CC(=O)N2[C@H]1C(=O)O [6(b), 9-N-(2'-Methoxycarbonylethyl)aminodeoxyclavulanic acid]",
250 µg/mL,31 µg/mL,31 µg/mL,,,,"O=C(O)CCCCCNC/C=C1\O[C@@H]2CC(=O)N2[C@H]1C(=O)O [9(b), 9-N-(5'-Carboxypentyl)aminodeoxyclavulanic acid]",
250 µg/mL,62.5 µg/mL,31 µg/mL,,,,"O=C(O)CCCNC/C=C1\O[C@@H]2CC(=O)N2[C@H]1C(=O)O [10(b), 9-N-(3'-Carboxypropyl)aminodeoxyclavulanic acid]",
> 500 µg/mL,8 µg/mL,,,,,"O=C(O)CCCCCCCCCCNC/C=C1\O[C@@H]2CC(=O)N2[C@H]1C(=O)O [11(b), 9-N-(10'-Carboxydecyl)aminodeoxyclavulanic acid]",
250 µg/mL,16 µg/mL,31 µg/mL,,,,"O=C(O)[C@H]1/C(=C/CNC[C@H]2CC[C@H](C(=O)O)CC2)O[C@@H]2CC(=O)N21 [12(d), 9-N-(trans-4'-Carboxycyclohexylmethyl)aminodeoxyclavulanic acid]",
,,,500 µg/mL,500 µg/mL,2000 µg/mL,CC1(C)S[C@@H]2[C@H](NC(=O)[C@H](N)c3ccc(O)cc3)C(=O)N2[C@H]1C(=O)O [Amoxycillin],

Compound,MIC (K aerogenes E70 [1]),MIC (St aureus Russell [2]),MIC (E coli JT39 [3]; [7]),MIC amoxycillin (St aureus Russell [4]),MIC amoxycillin (K aerogenes E70 [5]),MIC amoxycillin (E coli JT39 [6]),MIC (E coli JT39 [3])
N[C@@H](CCCCNC/C=C1\O[C@@H]2CC(=O)N2[C@H]1C(=O)O)C(=O)O [14(d)],> 500 µg/mL,31 µg/mL,,,,,125 µg/mL
